Test results: paper PMC6199492, “Comprehensive Characterization of Toxoplasma Acyl Coenzyme A-Binding Protein TgACBP2 and Its Critical Role in Parasite Cardiolipin Metabolism” (mBio, 2018)

Target: T1, TgACBP2 (Toxoplasma gondii, UniProt A0A7J6JZP9)
T1 construct: gene TGRH88_042420; recombinant TgACBP2 with C-terminal GST tag (tag kept), expressed in E. coli and purified; native HA-tagged protein ~36 kDa
T1 sequence (A0A7J6JZP9 1-311): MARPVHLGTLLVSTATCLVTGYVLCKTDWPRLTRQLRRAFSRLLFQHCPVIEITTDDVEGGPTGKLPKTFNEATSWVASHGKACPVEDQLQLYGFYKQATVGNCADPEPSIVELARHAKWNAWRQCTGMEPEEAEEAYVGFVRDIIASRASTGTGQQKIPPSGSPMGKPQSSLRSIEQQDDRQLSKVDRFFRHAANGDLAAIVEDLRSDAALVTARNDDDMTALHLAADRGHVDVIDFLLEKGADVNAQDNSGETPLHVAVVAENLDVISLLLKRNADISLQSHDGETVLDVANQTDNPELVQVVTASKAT
Assay: fluorescence increase of NBD ligand upon binding, microplate reader
Conditions: labelled compound; 0.1 μM TgACBP2-GST, 0-0.25 μM ligand, PBS, room temperature, 5 min; ex 460 nm, em 540 nm; read-out: K (binding constant)

NBD-C16:0-CoA was tested, and the Kd was 136 nM.
